The record followed here is PubChem BioAssay (NCI).

Common to all, as to experiment: growth of human tumour cells (NCI), 48 h
For experiment [1], the system named is SNB-75 CNS.
Experiment [2] concerns NCI-H226 lung.
For experiment [3], the system named is SF-539 CNS.
For experiment [4], the system named is SNB-19 CNS.
Experiment [5] relates to MDA-MB-435.
Experiment [6] deals with UO-31 renal.
In experiment [7] the test system is MOLT-4 leukemia.
In experiment [8] the test system is LOX IMVI melanoma.
For experiment [9], the system named is PC-3 prostate.
Experiment [10] has as its system HL-60(TB) leukemia.
Experiment [11] concerns U251 CNS.
Experiment [12] deals with A498 renal.
The test system of experiment [13] is SK-MEL-28 melanoma.
In experiment [14] the test system is NCI-H522 lung.
In experiment [15] the test system is HOP-92 NSCLC.
Experiment [16] has as its system RXF 393 renal.
Experiment [17] has as its system OVCAR-5 ovarian.

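Five compound concentrations were applied to cells in 96-well plates for 48 hours; endpoints were derived by simple linear interpolation of the resulting dose-response curve. TGI marks complete inhibition of growth.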 Some results are limits rather than exact numbers.

As to `C=CCOC(=O)Cn1cnc2c(N)ncnc21`, the TGI in [1], in [2], in experiment [3], in [4], in experiment [5] and in [6] was over 100 µM in each case. Also, the TGI in [7], in experiment [8], in experiment [9], in experiment [10], in experiment [11] and in experiment [12] was over 100 µM each time. Besides, the TGI in [13] was over 100 µM.
Consider `COc1cc2c(cc1OS(C)(=O)=O)N=C[C@@H]1CCCN1C2=O`, for which the TGI in experiment [1], in experiment [2], in experiment [3], in experiment [4], in experiment [14] and in experiment [5] was over 100 µM each time. For the same compound, the TGI in experiment [6], in experiment [15], in experiment [7], in [8], in experiment [10] and in experiment [11] was over 100 µM throughout. Besides, the TGI in [16], in experiment [12] and in [13] was over 100 µM each time.
Consider `CCCCNC(=O)OCCN=c1c2ccccc2ccc2ccccc12`, for which the TGI in experiment [1], in experiment [2], in [17], in [3], in experiment [4] and in experiment [5] was over 100 µM throughout. For the same compound, the TGI in experiment [6], in [15], in experiment [7], in experiment [8], in experiment [9] and in experiment [10] was over 100 µM each time. The TGI in [11], in [16] and in experiment [13] was over 100 µM in each case.
In the case of `CC1(C)CNC(=O)C2(CCCO2)CNC(C)(C)CNC(=O)C2(CCCO2)CN1` (configuration not stated), the TGI in [1], in [17], in experiment [3], in experiment [4], in experiment [14] and in experiment [5] was over 10 µM throughout. Also, the TGI in experiment [15], in experiment [7], in experiment [8], in [9], in [10] and in experiment [11] was over 10 µM throughout. Further, the TGI in experiment [13] is over 10 µM.
Consider `C[N+]1(C)C2CC(OC(=O)C(CO)c3ccccc3)CC1C1OC12` (configuration not stated), for which the TGI in experiment [1], in experiment [2], in experiment [17], in [3], in experiment [4] and in [14] was over 100 µM throughout. In addition, the TGI in experiment [5], in experiment [6], in experiment [7], in experiment [8], in experiment [9] and in experiment [10] was over 100 µM each time. Besides, the TGI in [11], in [16], in experiment [12] and in experiment [13] was over 100 µM throughout.
With `O=C(O)CN1CCSc2ccccc2CN(CC(=O)O)CCSc2ccccc2C1`, the TGI in experiment [1], in [17], in [3], in experiment [4], in experiment [14] and in experiment [6] was over 100 µM throughout. In addition, the TGI in experiment [15], in experiment [8], in experiment [10], in experiment [11], in experiment [12] and in experiment [13] was over 100 µM throughout.
As to `COc1ccc2c(O)c(Oc3ccc(Cl)cc3)c(=O)oc2c1`, the TGI in experiment [1], in experiment [2], in [17], in experiment [3], in [4] and in experiment [14] was over 100 µM in each case. For the same compound, the TGI in experiment [6], in [15], in [7], in [8], in experiment [9] and in [10] was over 100 µM in each case. Also, the TGI in [11], in experiment [16], in experiment [12] and in experiment [13] was over 100 µM each time.
For `CC(C)OC(=O)NCCn1cc(-c2ccccc2)nn1`, the TGI in [1], in [2], in [17], in experiment [3], in experiment [4] and in experiment [14] was over 100 µM throughout. Moreover, the TGI in experiment [5], in [15], in [7], in experiment [8], in experiment [9] and in experiment [10] was over 100 µM throughout. Besides, the TGI in [11] and in experiment [13] was over 100 µM throughout.
`O=C(O)c1cc(CCc2ccc(O)c(O)c2)ccc1O`: the TGI in experiment [1], in experiment [2], in experiment [17], in [3], in experiment [4] and in [14] was over 100 µM in each case. In addition, the TGI in experiment [5] is over 100 µM; in [6] it was over 100 µM; in [7], over 100 µM; in experiment [9], over 100 µM; in experiment [10] it was 59.2 µM; in experiment [11], over 100 µM. In experiment [12], the TGI was over 100 µM.
Take `CN(Cc1cnc2nc(N)nc(N)c2n1)c1ccc(C(=O)NCCCS(=O)(=O)O)cc1`: the TGI in experiment [1], in [2], in experiment [17], in experiment [3], in experiment [4] and in [14] was over 100 µM throughout. For the same compound, the TGI in [5], in experiment [6], in [7], in [8], in [9] and in [11] was over 100 µM in each case. Moreover, the TGI in experiment [12] and in [13] was over 100 µM each time.
Regarding `CC(=O)OCC1OC(N2C(=O)[C@@H](Oc3ccccc3)[C@H]2/C=C/c2ccccc2)C(OC(C)=O)C(OC(C)=O)C1OC(C)=O` (some centres not stated), the TGI in experiment [1] was 90 µM; in [2], over 100 µM; in [17], over 100 µM; in [3], over 100 µM; in [4], over 100 µM; in experiment [14] it was over 100 µM. For the same compound, the TGI in experiment [6], in experiment [15], in experiment [7], in [8], in experiment [10] and in experiment [11] was over 100 µM throughout. Further, the TGI in experiment [16], in experiment [12] and in experiment [13] was over 100 µM in each case.
Take `O=C(Cc1ccccc1)NN1C(=O)C(Cl)C1c1ccc(Cl)cc1` (configuration not stated): the TGI in experiment [1], in [2], in experiment [17], in [4], in [14] and in experiment [6] was over 100 µM each time. Moreover, the TGI in experiment [7], in experiment [8], in experiment [10], in experiment [11], in experiment [16] and in experiment [13] was over 100 µM in each case.
Consider `COCN1C(=O)[C@@H]2CCCN2C(=O)c2cc(OC)c(Cc3ccccc3)cc21`, for which the TGI in experiment [1], in experiment [17], in experiment [3], in experiment [4], in experiment [14] and in experiment [5] was over 100 µM in each case. Also, the TGI in experiment [6], in [8], in experiment [9], in [11], in experiment [16] and in experiment [12] was over 100 µM in each case. This compound also returned a TGI in [13] of over 100 µM.
Regarding `O=C(c1ccc2ccccc2c1)C1(I)S(=O)(=O)OCCOS1(=O)=O`, the TGI in experiment [17], in experiment [4], in experiment [5], in experiment [6], in experiment [7] and in [9] was over 100 µM in each case. Besides, the TGI in experiment [10], in [11] and in experiment [13] was over 100 µM each time.
On to `CN(C)c1cccc(-c2cc(=S)c3cc4c(cc3[nH]2)OCO4)c1`, for which the TGI in experiment [2] was over 100 µM; in experiment [17], over 100 µM; in experiment [3], over 100 µM; in experiment [4], over 100 µM; in [14], 67.7 µM; in experiment [6], over 100 µM. In addition, the TGI in experiment [15] is over 100 µM; in experiment [7] it was over 93 µM; in experiment [8] it was over 100 µM; in [9] it was over 100 µM; in experiment [11], over 100 µM; in [16], 43.3 µM. In addition, the TGI in [12] and in experiment [13] was over 100 µM in each case.
Take `O=C1CSC(c2c[nH]c3ccccc23)N1c1cccc(Cl)c1` (configuration not stated): the TGI in experiment [1], in experiment [2], in experiment [17], in [3], in [4] and in [5] was over 100 µM throughout. Also, the TGI in experiment [6], in experiment [15], in experiment [7], in experiment [10], in [11] and in [16] was over 100 µM in each case. Besides, the TGI in experiment [12] and in [13] was over 100 µM each time.
As for `CCC(C)N1CN(c2ccccc2)C2(CCN(CC3COc4ccccc4O3)CC2)C1=O` (configuration not stated), the TGI is over 100 µM in experiment [1]; 52.3 µM in experiment [2]; 33.3 µM in experiment [3]; over 100 µM in experiment [4]; 68.6 µM in experiment [14]; 49.7 µM in experiment [5]. In addition, the TGI in experiment [6] worked out at 30.2 µM; in experiment [7] it was 66.4 µM; in [8], 44.2 µM; in [9] it was 87.3 µM; in [10] it was 34.4 µM; in [11], 38.7 µM. Moreover, the TGI in experiment [16] is 38.1 µM; in experiment [13] it was over 100 µM.
Take `CN(C)CCNc1ccc(NCC[N+](C)(C)Cc2ccc([N+](=O)[O-])cc2)c2c1C(=O)c1c(O)ccc(O)c1C2=O`: the TGI is over 100 µM in experiment [1]; over 100 µM in experiment [2]; over 100 µM in [4]; over 100 µM in [5]; 8.8 µM in experiment [7]; over 100 µM in experiment [8]. Moreover, the TGI in experiment [9], in experiment [10], in [11], in [12] and in [13] was over 100 µM throughout.
As to `CCN(CC)C(=O)CCn1ccc(=O)[nH]c1=O`, the TGI in [1], in [2], in experiment [17], in [3], in experiment [4] and in experiment [14] was over 100 µM each time. Besides, the TGI in experiment [6], in experiment [7], in experiment [8], in experiment [10], in experiment [11] and in experiment [16] was over 100 µM throughout. In experiment [13], this compound yielded a TGI of over 100 µM.
As for `COc1cc2nc(-c3cccs3)nc(Nc3cccc([N+](=O)[O-])c3)c2cc1OC`, the TGI was 78.8 µM in experiment [1]; 58.7 µM in experiment [2]; 41.4 µM in experiment [17]; 34 µM in experiment [3]; 33.6 µM in [4]; 38.1 µM in [14]. Besides, the TGI in experiment [5] is 31.6 µM; in experiment [6], 43.9 µM; in experiment [7], over 100 µM; in [8] it was 45.7 µM; in experiment [9] it was 37.8 µM; in experiment [10] it was over 100 µM. For the same compound, the TGI in experiment [11] was 32.4 µM; in experiment [16] it was 74.1 µM; in [12], over 100 µM; in experiment [13] it was 58 µM.
